Experimental data reported in patent publication US12433876B2, “Septin inhibitors for treatment of cancers” (UNIVERSITY OF ROCHESTER, priority 2019, dated 2025).

Assays:
[1] = tested on: JIMT-1 breast cancer cells; test: RNA-Seq whole transcriptome analysis, JIMT-1; assay type: cell-based, human; conditions: 10 nM Afatinib
HE4 = HE4 ELISA, secreted and intracellular levels; assay type: cell-based, human; conditions: ECC-1, 5 hours
Procedure: Cell lines, Culture, and Reagents. Cells were maintained in either DMEM (SKOV-3, KLE, OVCAR-3, OVCAR8-C5 and IGROV-1) or RPMI-1640 (ECC-1 and HCH-1), supplemented with 10% fetal calf serum (or 20% for OVCAR-3), penicillin (100 units/mL), and streptomycin (100 μg/mL) at 37° C. with 5% CO2 in a humidified incubator. Antibodies were purchased from Abcam (septin-2; ab179436) and Cell Signaling Technology; ERK (9102), p-ERK (4370), -actin (3700), u-Tubulin (2144), EGFR (4267) and HER2 (4290). FCF was purchased from Abcam. All other chemicals were from Sigma Aldrich. Synthesis of Derivaties. […] The reaction was monitored using thin-layer chromatography plates with DCM-MeOH or pure ethyl acetate as eluent. Spots were monitored in a UV chamber. The reaction mixture, upon completion of the reaction, was poured into wet ice mixture and triturated, then the separated solid was filtered by vacuum. The product was washed with hexane, followed by diethyl ether, and was dried under vacuum. The compounds were characterized by spectrophotometric techniques. Quantitative Real-Time PCR. The indicated cell lines were transfected with siRNA targeting septin-2 or non-targeting control siRNA (Santa Cruz Biotechnology: sc-37007 or sc-40936) using Lipofectamine 3000 (Invitrogen). Tri reagent and Direct-zol kit (Zymo Research) were used to lyse and isolate total RNA. Reverse transcription was performed using iScript cDNA synthesis kit (BioRad), both following the manufacturer's recommendations. Quantitative real-time PCR was conducted using QuantStudio 12 K Flex Real-Time PCR System (ABI) and the Taqman Gene Expression Assay (ABI) consisting of the FAM-labeled probes as follows: SEPT2 (Hs01565417_ml); WFDC2 (Hs00899484_ml); TBP (Hs00427620_ml) or B2M (Hs00187842_ml), which was used as reference for normalization. Cell Viability, Proliferation and Apoptosis Assay. Cell viability, proliferation, and cellular apoptosis were measured using the MTS (Promega), BrdU cell proliferation (Cell Signaling Technology), and Caspase-Glo 3/7 apoptosis detection (Promega) assays, following the respective manufacturer's recommendations with suitable modification. Enzyme-Linked Immunosorbent Assay (ELISA) and Immunoblotting. Cells were maintained overnight in the culture media described above. […] Following the treatment, cell lysates and supernatants were collected and subjected to HE4 assay (Human HE4 Quantikine ELISA Kit, R&D Systems). The amount of HE4 in supernatant was normalized to the protein concentration of matching cell lysate. The levels of HER2 were determined by Human Total ErbB2/Her2 DuoSet IC ELISA (R&D systems. Wester blot analysis was conducted using the protocol previously published (see Kim, K. K. et al. Tetrathiomolybdate inhibits mitochondrial complex IV and mediates degradation of hypoxia-inducible factor-1alpha in cancer cells. Sci. Rep. 5, 14296, 2015). Data Acquisition and Statistical Analysis. Gene expression profiling of septins, comparing microdissected normal ovarian stroma (N=8) against that of tumor stroma samples (N=31) from high grade serous ovarian cancer patients, was obtained from Mixed Ovarian Cancer (CAFs)-Wong-77-u133p2 data-set through ‘R2: Genomics Analysis and Visualization Platform (http://r2/am/n1). […] Survival curves between septin high and low population and their statistical significance were analyzed using GraphPad Prism software (Mantel-Cox test). […]

[2] = tested on: endometrial (ECC-1 and KLE) and ovarian (HCH-1, OVCAR-3, and SKOV-3) cancer cell lines; test: MTS cell viability, gynecologic cancer cell line panel; assay type: cell-based; conditions: for proliferation in multiple endometrial and ovarian cancer cells: at considerably lower doses than FCF; for cytotoxic / anti-proliferative activity (FIG. 2A): fixed concentration 100 μM, 24 hours
Procedure: Cell lines, Culture, and Reagents. Cells were maintained in either DMEM (SKOV-3, KLE, OVCAR-3, OVCAR8-C5 and IGROV-1) or RPMI-1640 (ECC-1 and HCH-1), supplemented with 10% fetal calf serum (or 20% for OVCAR-3), penicillin (100 units/mL), and streptomycin (100 μg/mL) at 37° C. with 5% CO2 in a humidified incubator. Antibodies were purchased from Abcam (septin-2; ab179436) and Cell Signaling Technology; ERK (9102), p-ERK (4370), -actin (3700), u-Tubulin (2144), EGFR (4267) and HER2 (4290). FCF was purchased from Abcam. All other chemicals were from Sigma Aldrich. Synthesis of Derivaties. […] The reaction was monitored using thin-layer chromatography plates with DCM-MeOH or pure ethyl acetate as eluent. Spots were monitored in a UV chamber. The reaction mixture, upon completion of the reaction, was poured into wet ice mixture and triturated, then the separated solid was filtered by vacuum. The product was washed with hexane, followed by diethyl ether, and was dried under vacuum. The compounds were characterized by spectrophotometric techniques. Quantitative Real-Time PCR. The indicated cell lines were transfected with siRNA targeting septin-2 or non-targeting control siRNA (Santa Cruz Biotechnology: sc-37007 or sc-40936) using Lipofectamine 3000 (Invitrogen). Tri reagent and Direct-zol kit (Zymo Research) were used to lyse and isolate total RNA. Reverse transcription was performed using iScript cDNA synthesis kit (BioRad), both following the manufacturer's recommendations. Quantitative real-time PCR was conducted using QuantStudio 12 K Flex Real-Time PCR System (ABI) and the Taqman Gene Expression Assay (ABI) consisting of the FAM-labeled probes as follows: SEPT2 (Hs01565417_ml); WFDC2 (Hs00899484_ml); TBP (Hs00427620_ml) or B2M (Hs00187842_ml), which was used as reference for normalization. Cell Viability, Proliferation and Apoptosis Assay. Cell viability, proliferation, and cellular apoptosis were measured using the MTS (Promega), BrdU cell proliferation (Cell Signaling Technology), and Caspase-Glo 3/7 apoptosis detection (Promega) assays, following the respective manufacturer's recommendations with suitable modification. Enzyme-Linked Immunosorbent Assay (ELISA) and Immunoblotting. Cells were maintained overnight in the culture media described above. […] Following the treatment, cell lysates and supernatants were collected and subjected to HE4 assay (Human HE4 Quantikine ELISA Kit, R&D Systems). The amount of HE4 in supernatant was normalized to the protein concentration of matching cell lysate. The levels of HER2 were determined by Human Total ErbB2/Her2 DuoSet IC ELISA (R&D systems. Wester blot analysis was conducted using the protocol previously published (see Kim, K. K. et al. Tetrathiomolybdate inhibits mitochondrial complex IV and mediates degradation of hypoxia-inducible factor-1alpha in cancer cells. Sci. Rep. 5, 14296, 2015). Data Acquisition and Statistical Analysis. Gene expression profiling of septins, comparing microdissected normal ovarian stroma (N=8) against that of tumor stroma samples (N=31) from high grade serous ovarian cancer patients, was obtained from Mixed Ovarian Cancer (CAFs)-Wong-77-u133p2 data-set through ‘R2: Genomics Analysis and Visualization Platform (http://r2/am/n1). Mean values with SD were plotted and compared using Student t-test (two tail, unpaired heteroscedastic t-test, significant difference when p<0.01). The prognostic assessment of septin-2 amongst different cancers or septins in endometrial cancer was conducted using TCGA data acquired through Human Protein Atlas (http://www.proteinatlas.org) (see Uhlen, M. et al. Towards a knowledge-based Human Protein Atlas. Nat. Biotechnol. 28, 1248-1250, 2010). Survival curves between septin high and low population and their statistical significance were analyzed using GraphPad Prism software (Mantel-Cox test). […] Structural Modification of FCF. […]

ECC-1 cells [3] = test: BrdU cell proliferation assay; assay type: cell-based; conditions: ECC-1, 48 hours, BrdU, lower dose ranges
Procedure: (§1) Cell lines, Culture, and Reagents. Cells were maintained in either DMEM (SKOV-3, KLE, OVCAR-3, OVCAR8-C5 and IGROV-1) or RPMI-1640 (ECC-1 and HCH-1), supplemented with 10% fetal calf serum (or 20% for OVCAR-3), penicillin (100 units/mL), and streptomycin (100 μg/mL) at 37° C. with 5% CO2 in a humidified incubator. Antibodies were purchased from Abcam (septin-2; ab179436) and Cell Signaling Technology; ERK (9102), p-ERK (4370), -actin (3700), u-Tubulin (2144), EGFR (4267) and HER2 (4290). FCF was purchased from Abcam. All other chemicals were from Sigma Aldrich. Synthesis of Derivaties. […] The reaction was monitored using thin-layer chromatography plates with DCM-MeOH or pure ethyl acetate as eluent. Spots were monitored in a UV chamber. The reaction mixture, upon completion of the reaction, was poured into wet ice mixture and triturated, then the separated solid was filtered by vacuum. The product was washed with hexane, followed by diethyl ether, and was dried under vacuum. The compounds were characterized by spectrophotometric techniques. Quantitative Real-Time PCR. The indicated cell lines were transfected with siRNA targeting septin-2 or non-targeting control siRNA (Santa Cruz Biotechnology: sc-37007 or sc-40936) using Lipofectamine 3000 (Invitrogen). […] Quantitative real-time PCR was conducted using QuantStudio 12 K Flex Real-Time PCR System (ABI) and the Taqman Gene Expression Assay (ABI) consisting of the FAM-labeled probes as follows: SEPT2 (Hs01565417_ml); WFDC2 (Hs00899484_ml); TBP (Hs00427620_ml) or B2M (Hs00187842_ml), which was used as reference for normalization. […] Cell viability, proliferation, and cellular apoptosis were measured using the MTS (Promega), BrdU cell proliferation (Cell Signaling Technology), and Caspase-Glo 3/7 apoptosis detection (Promega) assays, following the respective manufacturer's recommendations with suitable modification. […] Survival curves between septin high and low population and their statistical significance were analyzed using GraphPad Prism software (Mantel-Cox test). […]

ECC-1 cells [4] = test: Caspase-3/7 activity apoptosis assay; assay type: cell-based; conditions: ECC-1, 33 μM, 48 hours
Procedure: (§2) Cell lines, Culture, and Reagents. Cells were maintained in either DMEM (SKOV-3, KLE, OVCAR-3, OVCAR8-C5 and IGROV-1) or RPMI-1640 (ECC-1 and HCH-1), supplemented with 10% fetal calf serum (or 20% for OVCAR-3), penicillin (100 units/mL), and streptomycin (100 μg/mL) at 37° C. with 5% CO2 in a humidified incubator. Antibodies were purchased from Abcam (septin-2; ab179436) and Cell Signaling Technology; ERK (9102), p-ERK (4370), -actin (3700), u-Tubulin (2144), EGFR (4267) and HER2 (4290). FCF was purchased from Abcam. All other chemicals were from Sigma Aldrich. Synthesis of Derivaties. […] The reaction was monitored using thin-layer chromatography plates with DCM-MeOH or pure ethyl acetate as eluent. Spots were monitored in a UV chamber. […] Quantitative Real-Time PCR. […] Quantitative real-time PCR was conducted using QuantStudio 12 K Flex Real-Time PCR System (ABI) and the Taqman Gene Expression Assay (ABI) consisting of the FAM-labeled probes as follows: SEPT2 (Hs01565417_ml); WFDC2 (Hs00899484_ml); TBP (Hs00427620_ml) or B2M (Hs00187842_ml), which was used as reference for normalization. […] Cell viability, proliferation, and cellular apoptosis were measured using the MTS (Promega), BrdU cell proliferation (Cell Signaling Technology), and Caspase-Glo 3/7 apoptosis detection (Promega) assays, following the respective manufacturer's recommendations with suitable modification. […]

HCH-1 cells = test: MTS cell viability, HCH-1; assay type: cell-based; conditions: HCH-1, 72 hours, compared with UR214-9
Procedure: as §2

ECC-1 cells [5] = test: MTS cell viability, ECC-1; assay type: cell-based; conditions: ECC-1, 48 hours, MTS (FIG. 2B)
Procedure: as §1

HER2 = test: Western blot of HER2 expression in ECC-1 and HCH-1 cells; assay type: cell-based; conditions: UR214-7 33 μM, UR214-9 33 μM, FCF 300 μM, 24 hours
Procedure: as §1

EGFR = test: Western blot of EGFR expression; assay type: cell-based; conditions: UR214-7 33 μM, UR214-9 33 μM; 24 hours
Procedure: as §2

Compound: CN(C)C/C=C/C(=O)Nc1cc2c(Nc3ccc(F)c(Cl)c3)ncnc2cc1O[C@H]1CCOC1 [Afatinib]
- dysregulated genes, down ([1]; 1 μM UR214-9): 523
- dysregulated genes, up ([1]; 1 μM UR214-9): 713
- dysregulated (differentially expressed) genes versus control ([1]; 1 μM UR214-9, adjusted p-value <0.05): 1236 genes

Compound: O=C(Nc1ccnc(Cl)c1)Nc1cc(SC(F)(F)F)ccc1Cl [UR214-1]
- HE4 secretion (HE4): reduced HE4 secretion
- proliferation in multiple endometrial and ovarian cancer cells [2]: blocked proliferation
- cytotoxic / anti-proliferative activity (FIG. 2A) ([2]; MTS): very potent cytotoxic activity

Compound: O=C(Nc1cccc(OCc2ccccc2)c1)Nc1ccnc(Cl)c1 [UR214-2]
- cytotoxic / anti-proliferative activity (FIG. 2A) ([2]; MTS): not tolerated

Compound: O=C(Nc1ccc(-n2cccc2)cc1)Nc1ccnc(Cl)c1 [UR214-3]
- cytotoxic / anti-proliferative activity (FIG. 2A) ([2]; MTS): not tolerated

Compound: O=C(Nc1ccc(-c2ncccn2)cc1)Nc1ccnc(Cl)c1 [UR214-4]
- cytotoxic / anti-proliferative activity (FIG. 2A) ([2]; MTS): not tolerated

Compound: O=C(Nc1cnc(Cl)nc1)Nc1cc(SC(F)(F)F)ccc1Cl [UR214-6]
- cytotoxic / anti-proliferative activity (FIG. 2A) ([2]; MTS): lack of activity

Compound: O=C(Nc1ccnc(Cl)c1)Nc1cccc(SC(F)(F)F)c1F [UR214-7]
- proliferation (ECC-1 cells [3]): reduce proliferation
- HE4 secretion (HE4): reduced HE4 secretion
- apoptosis (caspase-3/7 activity) (ECC-1 cells [4]): caused apoptosis
- proliferation in multiple endometrial and ovarian cancer cells [2]: blocked proliferation
- viability of tumor cells, dose-dependent (FIG. 2E) (HCH-1 cells): superior efficacy
- concentration inhibiting viability (ECC-1 cells [5]): ≥ 11 µM
- HER2 expression (HER2): inhibition of HER2 expression
- EGFR expression (EGFR): did not have an effect

Compound: O=C(Nc1ccnc(Br)c1)Nc1cccc(C(F)(F)F)c1F [UR214-11]
- viability of tumor cells, dose-dependent (FIG. 2E) ([2]; 72 hours, MTS): did not lose activity
